The source of these data is PMC4742250 (Biochimica et biophysica acta, 2008).

In one assay the target is E. coli Trx (Escherichia coli, UniProt P0AA25). Kind of assay: dilution binding assay of biotinylated TP-2 to immobilized Trx.
The target in another assay is Trx-gp5Δ22 interaction (Escherichia coli, UniProt P0AA25). The assay is described as follows: biochemical. Also on record: species or system E. coli (Trx); bacteriophage T7 (gp5Δ22).
A further assay has as its system human Src SH3 domain. Kind of assay: phage ELISA, binding to human Src SH3 domain. Conditions: immobilized on polystyrene plates, O.D. 405 nm, triplicate wells. In general terms: ELISA stands for enzyme-linked immunosorbent assay.
The target in another assay is Src SH3. Conditions: read-out: KD, Src SH3 and its peptide ligand; ref [23]; cited from earlier work.

Where a SMILES comes first, the peptide text is derived from it. Bridges are numbered along the chain shown (N, C = ends).

Sequence of E. coli Trx (P0AA25 whole entry): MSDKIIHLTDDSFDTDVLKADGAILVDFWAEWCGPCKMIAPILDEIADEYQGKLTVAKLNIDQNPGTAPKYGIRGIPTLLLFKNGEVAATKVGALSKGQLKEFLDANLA
Sequence of Trx-gp5Δ22 interaction (P0AA25 2-109, stated change not applied): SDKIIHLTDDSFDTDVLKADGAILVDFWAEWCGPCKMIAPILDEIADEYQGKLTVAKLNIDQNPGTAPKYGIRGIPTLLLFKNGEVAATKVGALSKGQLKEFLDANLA

One may read the Kd as the concentration at which binding is half-saturated. For orientation: IC50 means the concentration needed to halve the response being measured. Read a low IC50 as inhibition by little substance. At E. coli Trx, `CC[C@H](C)[C@H](NC(=O)[C@H](CC(C)C)NC(=O)[C@H](CCCNC(=N)N)NC(=O)[C@H](CC(=O)O)NC(=O)[C@@H]1CCCN1C(=O)[C@@H](NC(=O)[C@@H](NC(=O)[C@@H]1CSSC[C@H](NC(=O)[C@H](CC(N)=O)NC(=O)[C@@H](NC(=O)[C@H](CC(N)=O)NC(=O)[C@H](CCCNC(=N)N)NC(=O)[C@@H](N)CO)C(C)C)C(=O)N[C@@H](CC(N)=O)C(=O)N[C@@H](C)C(=O)N[C@@H](CO)C(=O)N[C@@H](C(C)C)C(=O)N1)[C@@H](C)O)[C@@H](C)CC)C(=O)N[C@H](C(=O)N[C@@H](CC(=O)O)C(=O)N[C@@H](CC(N)=O)C(=O)N1CCC[C@H]1C(=O)NCC(=O)N[C@@H](CO)C(=O)NCC(=O)N[C@@H](CO)C(N)=O)[C@@H](C)O` [TP-2] (H-SRNVNCNASVCTIPDRLITDNPGSGS-NH2; disulfide 6-11) registered a Kd of 2 µM. Further, the “reduction of peptide binding in the presence of DTT” value at E. coli Trx (10 mM DTT, data not shown) is over 50%. Moreover, the IC50 at Trx-gp5Δ22 interaction was about 10 µM.

On to “H-SSRPLPPLPGS-NH2 [Src SH3 peptide ligand]”, for which the “binding to human Src SH3 domain” value in the assay on human Src SH3 domain is “binds to Src SH3 domain”. Moreover, the Kd on Src SH3 was about 5 µM.
